Experimental data taken from ChEMBL document CHEMBL3885881, “DrugMatrix”.

Organism: Rattus norvegicus
Experiment: DrugMatrix - Regimen: Daily Repeat
Assay type: toxicity, organism-based, Sprague-Dawley
Set-up: regimen Daily Repeat, gender Male, age 6-8 weeks
Details: in vivo, sc, route subcutaneous, […]; for ABSOLUTE BASOPHIL / ABSOLUTE EOSINOPHIL / ABSOLUTE LYMPHOCYTE / ABSOLUTE MONOCYTE / ABSOLUTE SEGMENTED NEUTROPHIL / BASOPHIL / EOSINOPHIL / ERYTHROCYTE COUNT / HEMATOCRIT / HEMOGLOBIN / LEUKOCYTE COUNT / LYMPHOCYTE / MEAN CORPUSCULAR HEMOGLOBIN / MEAN CORPUSCULAR HEMOGLOBIN CONCENTRATION / MEAN CORPUSCULAR VOLUME / MONOCYTE / NEUTROPHIL / NUCLEATED RED BLOOD CELLS / PLATELET COUNT: tissue Blood; for ALANINE AMINOTRANSFERASE / ALBUMIN / ALKALINE PHOSPHATASE / ASPARTATE AMINOTRANSFERASE / BLOOD UREA NITROGEN / CARBON DIOXIDE / CHLORIDE / CHOLESTEROL / CREATINE PHOSPHOKINASE / CREATININE / GLUCOSE / LACTATE DEHYDROGENASE / LIPASE / PHOSPHORUS / POTASSIUM / SODIUM / TOTAL BILIRUBIN / TOTAL PROTEIN / URIC ACID: tissue Plasma
[1] = 0 mg/kg, 72 h, dose level Control, time 3 day
[2] = 0 mg/kg, 120 h, dose level Control, time 5 day
[3] = 18 mg/kg, 72 h, dose level High, time 3 day

Which results are given for `CN(C)c1ccc(C(=C2C=CC(=[N+](C)C)C=C2)c2ccc(N(C)C)cc2)cc1.[Cl-]` [GENTIAN VIOLET]?
ABSOLUTE BASOPHIL [1]: 0 CELLS/uL; ABSOLUTE EOSINOPHIL [1]: 92.33 CELLS/uL; ABSOLUTE LYMPHOCYTE [1]: 12247.5 CELLS/uL; ABSOLUTE MONOCYTE [1]: 389.67 CELLS/uL; ABSOLUTE SEGMENTED NEUTROPHIL [1]: 1320.5 CELLS/uL; BASOPHIL [1]: 0%; EOSINOPHIL [1]: 0.67%; ERYTHROCYTE COUNT [1]: 5.45 x10E6/uL; HEMATOCRIT [1]: 34.85%; HEMOGLOBIN [1]: 12.97 G/DL; LEUKOCYTE COUNT [1]: 14.05 x10E3/uL; LYMPHOCYTE [1]: 87.33%; MEAN CORPUSCULAR HEMOGLOBIN [1]: 23.78 pg; MEAN CORPUSCULAR HEMOGLOBIN CONCENTRATION [1]: 37.22 G/DL; MEAN CORPUSCULAR VOLUME [1]: 63.93 fL; MONOCYTE [1]: 2.67%; NEUTROPHIL [1]: 9.33%; NUCLEATED RED BLOOD CELLS [1]: 0 /100WBC; PLATELET COUNT [1]: 1174 x10E3/uL; ALANINE AMINOTRANSFERASE [1]: 48.83 u/L; ALBUMIN [1]: 4.23 G/DL; ALKALINE PHOSPHATASE [1]: 351.5 u/L; ASPARTATE AMINOTRANSFERASE [1]: 90 u/L; BLOOD UREA NITROGEN [1]: 15.33 mg/dL; CARBON DIOXIDE [1]: 23 mmol/L; CHLORIDE [1]: 103.5 MEQ/L; CHOLESTEROL [1]: 70.5 mg/dL; CREATINE PHOSPHOKINASE [1]: 651.83 u/L; CREATININE [1]: 0.22 mg/dL; GLUCOSE [1]: 180.67 mg/dL; LACTATE DEHYDROGENASE [1]: 165 u/L; LIPASE [1]: 9.33 u/L; PHOSPHORUS [1]: 12.03 mg/dL; POTASSIUM [1]: 6.17 MEQ/L; SODIUM [1]: 142.62 MEQ/L; TOTAL BILIRUBIN [1]: 0.2 mg/dL; TOTAL PROTEIN [1]: 5.73 G/DL; URIC ACID [1]: 1.77 mg/dL; ABSOLUTE BASOPHIL [2]: 0 CELLS/uL; ABSOLUTE EOSINOPHIL [2]: 0 CELLS/uL; ABSOLUTE LYMPHOCYTE [2]: 12736.67 CELLS/uL; ABSOLUTE MONOCYTE [2]: 253.5 CELLS/uL; ABSOLUTE SEGMENTED NEUTROPHIL [2]: 1193.17 CELLS/uL; BASOPHIL [2]: 0%; EOSINOPHIL [2]: 0%; ERYTHROCYTE COUNT [2]: 5.72 x10E6/uL; HEMATOCRIT [2]: 36.05%; HEMOGLOBIN [2]: 13.62 G/DL; LEUKOCYTE COUNT [2]: 14.18 x10E3/uL; LYMPHOCYTE [2]: 89.33%; MEAN CORPUSCULAR HEMOGLOBIN [2]: 23.83 pg; MEAN CORPUSCULAR HEMOGLOBIN CONCENTRATION [2]: 37.8 G/DL; MEAN CORPUSCULAR VOLUME [2]: 63.05 fL; MONOCYTE [2]: 1.83%; NEUTROPHIL [2]: 8.83%; NUCLEATED RED BLOOD CELLS [2]: 0 /100WBC; PLATELET COUNT [2]: 1322.17 x10E3/uL; ALANINE AMINOTRANSFERASE [2]: 48.83 u/L; ALBUMIN [2]: 4.27 G/DL; ALKALINE PHOSPHATASE [2]: 295.17 u/L; ASPARTATE AMINOTRANSFERASE [2]: 75.83 u/L; BLOOD UREA NITROGEN [2]: 15.5 mg/dL; CARBON DIOXIDE [2]: 30.5 mmol/L; CHLORIDE [2]: 102.33 MEQ/L; CHOLESTEROL [2]: 76.17 mg/dL; CREATINE PHOSPHOKINASE [2]: 205.5 u/L; CREATININE [2]: 0.2 mg/dL; GLUCOSE [2]: 149.67 mg/dL; LACTATE DEHYDROGENASE [2]: 124.5 u/L; LIPASE [2]: 10 u/L; PHOSPHORUS [2]: 10.93 mg/dL; POTASSIUM [2]: 6.59 MEQ/L; SODIUM [2]: 143.1 MEQ/L; TOTAL BILIRUBIN [2]: 0.2 mg/dL; TOTAL PROTEIN [2]: 6.05 G/DL; URIC ACID [2]: 1.45 mg/dL; ABSOLUTE BASOPHIL [3]: 0 CELLS/uL; ABSOLUTE EOSINOPHIL [3]: 0 CELLS/uL; ABSOLUTE LYMPHOCYTE [3]: 12052.33 CELLS/uL; ABSOLUTE MONOCYTE [3]: 236.33 CELLS/uL; ABSOLUTE SEGMENTED NEUTROPHIL [3]: 1544.67 CELLS/uL; BASOPHIL [3]: 0%; EOSINOPHIL [3]: 0%; ERYTHROCYTE COUNT [3]: 5.45 x10E6/uL; HEMATOCRIT [3]: 33.5%; HEMOGLOBIN [3]: 12.27 G/DL; LEUKOCYTE COUNT [3]: 13.83 x10E3/uL; LYMPHOCYTE [3]: 87%; MEAN CORPUSCULAR HEMOGLOBIN [3]: 22.5 pg; MEAN CORPUSCULAR HEMOGLOBIN CONCENTRATION [3]: 36.67 G/DL; MEAN CORPUSCULAR VOLUME [3]: 61.5 fL; MONOCYTE [3]: 1.67%; NEUTROPHIL [3]: 11.33%; NUCLEATED RED BLOOD CELLS [3]: 0 /100WBC; PLATELET COUNT [3]: 1084 x10E3/uL; ALANINE AMINOTRANSFERASE [3]: 34.67 u/L; ALBUMIN [3]: 2.67 G/DL; ALKALINE PHOSPHATASE [3]: 220 u/L; ASPARTATE AMINOTRANSFERASE [3]: 68.67 u/L; BLOOD UREA NITROGEN [3]: 12 mg/dL; CARBON DIOXIDE [3]: 19 mmol/L; CHLORIDE [3]: 103.5 MEQ/L; CHOLESTEROL [3]: 66.33 mg/dL; CREATINE PHOSPHOKINASE [3]: 157.33 u/L; CREATININE [3]: 0.17 mg/dL; GLUCOSE [3]: 122.33 mg/dL; LACTATE DEHYDROGENASE [3]: 148 u/L; LIPASE [3]: 7.33 u/L; PHOSPHORUS [3]: 8.5 mg/dL; POTASSIUM [3]: 6.06 MEQ/L; SODIUM [3]: 145.95 MEQ/L; TOTAL BILIRUBIN [3]: 0.13 mg/dL; TOTAL PROTEIN [3]: 4.7 G/DL; URIC ACID [3]: 1.1 mg/dL
